How the values were obtained:
[1] = test system: red grapes; details: exogenous application to red grapes prior to harvest; literature; cited from earlier work
[2] = test system: white wine grape cultivar 'Chardonnay'; assay: Chardonnay field experiment: spectral analysis of berries at harvest; assay type: in vivo, grapevine; details: for A280 / A320 / A420 / Est. of brown pigments / Total Flavonoids / Total Hydroxycinnamates / Total Phenolics: Chardonnay berries at harvest
Method: (§1) A large block unreplicated field experiment was conducted on the white wine grape cultivar ‘Chardonnay’ in the Riverina growing region of New South Wales, Australia to test the effect of S-ABA on white grapes. Three treatments were tested: Untreated control, 200 ppm S-ABA applied at pre-veraison and 200 ppm S-ABA applied at veraison. Each block consisted of 4 rows and covered 0.4 Ha in size. S-ABA was applied using a commercial airblast sprayer. S-ABA was applied at a concentration of 200 ppm in a volume of approximately 1000 L/Ha (approximately 100 gallons/A) in order to achieve thorough and complete coverage of the grape bunches. A 20% S-ABA soluble granule formulation was utilized in the experiment. The commercial surfactant Kendeen 20 was included at a rate of 50 ml/100 L spray. Applications of S-ABA were made at pre-veraison (approximately 3 weeks before veraison or berry softening) and veraison. Irrigation, summer pruning, insecticide/fungicides and other routine vine management practices were the same as those practiced commercially by the grower in the adjacent parts of the vineyard.
Grapes samples were harvested at the time of commercial harvest for berry analysis and table wine production. For the standard maturity berry measurements, 12-20 bunches per replicate were sampled. Bunches were randomly selected from both sides of the vines. Samples were analyzed using standard analytical methods used by the grape and wine industry. For additional spectral analyses, samples of 100 berries from each treatment were collected prior to winemaking.

[3] = test system: white wine grape cultivar 'Semillon'; assay: Semillon field experiment: standard maturity berry measurements at harvest; assay type: in vivo, grapevine; details: for Baume: Semillon berries at harvest (54 days after veraison); for Titratable Acidity / pH: Semillon berries at harvest
Method: (§2) A replicated field experiment was conducted on the white wine grape cultivar ‘Semillon’ in the Riverina growing region of New South Wales, Australia to test the effect of S-ABA on white grapes. Four treatments were tested: Untreated control, 200 ppm S-ABA applied at pre-veraison, 200 ppm S-ABA applied at veraison, and 200 ppm S-ABA applied during the post-veraison period (berry sugar level of 10-11 Baume (18-20° brix)). There were 4 replicates of each treatment and the experiment was laid out in a randomized complete block (RCB) design. S-ABA was applied using a commercial airblast sprayer. S-ABA was applied at a concentration of 200 ppm in a volume of approximately 2000 L/Ha (approximately 200 gallons/A) in order to achieve thorough and complete coverage of the grape bunches. A 20% S-ABA soluble granule formulation was utilized in the experiment. The commercial surfactant Agral was included at a rate of 10 ml/100 L spray. Applications of S-ABA were made at pre-veraison (approximately 3 weeks before veraison or berry softening), veraison, and during the post-veraison period when the grape sugar levels had reached approximately 10-11 Baume (18-20° brix). The 10-11 Baume application took place 36 days after the veraison application. Irrigation, summer pruning, insecticide/fungicides and other routine vine management practices were the same as those practiced commercially by the grower in the adjacent parts of the vineyard.
(§3) Grape samples were harvested at the time of commercial harvest for berry analysis and table wine production. For the standard maturity berry measurements, 12-20 bunches per replicate were sampled. Bunches were randomly selected from both sides of the vines. Samples were analyzed using standard analytical methods used by the grape and wine industry. For additional spectral analyses, samples of 100 berries from each treatment were collected prior to winemaking.

[4] = test system: white wine grape cultivar 'Chardonnay'; assay: Chardonnay wine chemical (spectral) analysis; assay type: in vivo, grapevine
Method: as §1
Wine was produced from the grapes from each of the S-ABA treatments. Small lot primary fermentations were conducted and the wine was bottled. […] ferments of each treatment were conducted using approximately 3×50 kg of grapes. Each replicate ferment contained an equal volume of grapes from entire panels of vines. All grapes were harvest from both sides of the vines from these panels. The grapes were transferred immediately to the experimental winery, protected from heat and treated with sulfur dioxide. A standard winemaking protocol used for small-scale replicated primary fermentations was followed. Following the fermentation, the wine was bottled.
Chemical analyses were conducted on the wines prepared from the various treatments in the field experiment using industry standard analytical methods.

[5] = test system: white wine grape cultivar 'Semillon'; assay: Semillon field experiment: spectral analysis of berries at harvest; assay type: in vivo, grapevine
Method: as §2, §3

[6] = test system: white wine grape cultivar 'Chardonnay'; assay: Chardonnay grape tasting panel; assay type: in vivo, grapevine; details: Chardonnay grapes sampled at preharvest and at harvest; panel of two tasters; 200 ppm S-ABA
Method: as §1

[7] = test system: white wine grape cultivar 'Chardonnay'; assay: Chardonnay wine sensory analysis: straight judgment of difference test; assay type: in vivo, grapevine; details: All Chardonnay wines from the S-ABA treatments; ten tasters; with statistical significance
Method: as §1
Wine was produced from the grapes from each of the S-ABA treatments. […]
Sensory analysis was conducted on the S-ABA-treated and untreated wines. A panel consisting of ten experienced wine tasters evaluated the wines for aroma and taste. […]

[8] = 200 ppm S-ABA applied at pre-veraison
[9] = 200 ppm S-ABA applied at veraison
[10] = 200 ppm S-ABA applied post-veraison (11 Baume)
[11] = Semillon berries at harvest, 200 ppm S-ABA applied at pre-veraison
[12] = Semillon berries at harvest, 200 ppm S-ABA applied at veraison
[13] = Semillon berries at harvest, 200 ppm S-ABA applied post-veraison (11 Baume)

(S)-5-(1-hydroxy-2,6,6,-trimethyl-4-oxo-2-cyclohexen-1-yl)-3-methyl-(2Z,4E)-pentadienoic acid [S-ABA]
Accumulation of anthocyanins and red color of grape berry skins [1]: increase the accumulation of anthocyanins and increase the red color
A280 [2, 8]: 17.37
A320 [2, 8]: 3.53
A420 [2, 8]: 0.530
Est. of brown pigments [2, 8]: 0.530 a.u.
Total Flavonoids [2, 8]: 11.96 a.u.
Total Hydroxycinnamates [2, 8]: 2.13 a.u.
Total Phenolics [2, 8]: 13.37 a.u.
A280 [2, 9]: 14.07
A320 [2, 9]: 3.38
A420 [2, 9]: 0.567
Est. of brown pigments [2, 9]: 0.567 a.u.
Total Flavonoids [2, 9]: 8.76 a.u.
Total Hydroxycinnamates [2, 9]: 1.98 a.u.
Total Phenolics [2, 9]: 10.07 a.u.
Total phenolics, hydroxycinnamates, total flavonoids and estimate of brown pigments (chemical analysis) ([2]; Chardonnay berries, 200 ppm S-ABA treatments vs untreated): some differences
Baume ([3]; 200 ppm S-ABA foliar spray applied at pre-veraison): 11.6
Baume ([3]; 200 ppm S-ABA foliar spray applied at veraison): 11.7
Baume ([3]; 200 ppm S-ABA foliar spray applied post-veraison (11 Baume)): 11.6
Titratable Acidity [3, 8]: 4.5
pH [3, 8]: 3.57
Titratable Acidity [3, 9]: 4.5
pH [3, 9]: 3.56
Titratable Acidity [3, 10]: 4.0
pH [3, 10]: 3.61
Effect on berry sugar content (Baume), pH, titratable acidity or bunch weight ([3]; Semillon, 200 ppm S-ABA treatments): did not consistently affect
Total Hydroxycinnamates [4, 8]: 3.14 a.u
Total Phenolics [4, 8]: 2.55 a.u
Total Hydroxycinnamates [4, 9]: 3.19 a.u
Total Phenolics [4, 9]: 2.97 a.u
Balance of hydroxycinnamates and phenolics in S-ABA treated wines ([4]; spectral analysis, 200 ppm S-ABA treatments): different balance of hydroxycinnamates and phenolics
A280 [5, 11]: 6.62
A320 [5, 11]: 2.642
A420 [5, 11]: 0.465
Est. of brown pigments [5, 11]: 0.47 a.u.
Total Flavonoids [5, 11]: 1.80 a.u.
Total Hydroxycinnamates [5, 11]: 1.24 a.u.
Total Phenolics [5, 11]: 2.62 a.u.
A280 [5, 12]: 6.85
A320 [5, 12]: 2.713
A420 [5, 12]: 0.471
Est. of brown pigments [5, 12]: 0.47 a.u.
Total Flavonoids [5, 12]: 1.98 a.u.
Total Hydroxycinnamates [5, 12]: 1.31 a.u.
Total Phenolics [5, 12]: 2.85 a.u.
A280 [5, 13]: 6.47
A320 [5, 13]: 2.59
A420 [5, 13]: 0.461
Est. of brown pigments [5, 13]: 0.46 a.u.
Total Flavonoids [5, 13]: 1.68 a.u.
Total Hydroxycinnamates [5, 13]: 1.19 a.u.
Total Phenolics [5, 13]: 2.47 a.u.
Effect on phenolic composition of the berries ([5]; Semillon berries at harvest, 200 ppm S-ABA treatments): tended to increase
Total phenolics, hydroxycinnamates, total flavonoids and estimated brown pigments (chemical analysis) ([5]; Semillon berries, 200 ppm S-ABA treatments vs untreated): some differences
Flavor of S-ABA treated grapes vs untreated grapes [6]: notable differences in flavor
Judgment of difference from the reference wine (untreated control) [7]: judged to be different from the reference wine
